Patent US9200001B2, “Triazolyl PDE10 inhibitors” (Merck Sharp & Dohme Corp., priority 2011, dated 2015)

Target: human PDE10A2 (Homo sapiens (Human), UniProt Q9Y233)
Experiment: PDE10 fluorescence polarization (IMAP FP) inhibition assay
Type: biochemical
Conditions: FAM-labeled cAMP 50 nM, room temperature, read-out: PDE10a Ki
Description: The activity of the compounds in accordance with the present invention as PDE10 inhibitors may be readily determined without undue experimentation using a fluorescence polarization (FP) methodology that is well known in the art (Huang, W., et al., J. Biomol Screen, 2002, 7: 215).
In a typical experiment the PDE10 inhibitory activity of the compounds of the present invention was determined in accordance with the following experimental method. PDE10A2 was amplified from human fetal brain cDNA (Clontech, Mountain View, Calif.) using a forward primer corresponding to nucleotides 56-77 of human PDE10A2 (Accession No. AF127480, Genbank Identifier 4894716), containing a Kozak consensus sequence, and a reverse primer corresponding to nucleotides 2406-2413 of human PDE10A2 (Accession No. AF127480, Genbank Identifier 4894716). Amplification with Easy-A polymerase (Stratagene, La Jolla, Calif.) was 95° C. for 2 minutes followed by thirty three cycles of 95° C. for 40 seconds, 55° C. for 30 seconds, and 72° C. for 2 minutes 48 seconds. Final extension was 72° C. for 7 minutes. The PCR product was TA cloned into pcDNA3.2-TOPO (Invitrogen, Carlsbad, Calif.) according to standard protocol. AD293 cells with 70-80% confluency were transiently transfected with human PDE10A2/pcDNA3.2-TOPO using Lipofectamine 2000 according to manufacturer specifications (Invitrogen, Carlsbad, Calif.). Cells were harvested 48 hours post-transfection and lysed by sonication (setting 3, 10×5 sec pulses) in a buffer containing 20 mM HEPES, 1 mM EDTA and protease inhibitor cocktail (Roche). Lysate was collected by centrifugation at 75,000×g for 20 minutes. Supernatant containing the cytoplasmic fraction was used for evaluation of PDE10A2 activity. The fluorescence polarization assay for cyclic nucleotide phosphodiesterases was performed using an IMAP® FP kit supplied by Molecular Devices, Sunnyvale, Calif. (product # R8139). IMAP® technology has been applied previously to phosphodiesterase assays (Huang, W., et al., J. Biomol Screen, 2002, 7: 215). Assays were performed at room temperature in 384-well microtiter plates with an incubation volume of 20.2 μL. Solutions of test compounds were prepared in DMSO and serially diluted with DMSO to yield 8 μL of each of 10 solutions differing by 3-fold in concentration, at 32 serial dilutions per plate. 100% inhibition is determined using a known PDE10 inhibitor, which can be any compound that is present at 5,000 times its Ki value in the assay described as follows, such as papaverine (see Siuciak, et al. Neuropharmacology (2006) 51:386-396; Becker, et al. Behav Brain Res (2008) 186(2):155-60; Threlfell, et al., J Pharmacol Exp Ther (2009) 328(3):785-795), 2-{4-[pyridin-4-yl-1-(2,2,2-trifluoroethyl)-1H-pyrazol-3-yl]phenoxymethyl}quinoline succinic acid or 2-[4-(1-methyl-4-pyridin-4-yl-1H-pyrazol-3-yl)-phenoxymethyl]quinoline succinic acid (see Schmidt, et al. J Pharmacol Exp Ther (2008) 325:681-690; Threlfall, et al., J Pharmacol Exp Ther (2009) 328(3): 785-795). 0% of inhibition is determined by using DMSO (1% final concentrations).
A Labcyte Echo 555 (Labcyte, Sunnyvale, Calif.) is used to dispense 200 nL from each well of the titration plate to the 384 well assay plate. A solution of enzyme (1/1600 dilution from aliquots; sufficient to produce 20% substrate conversion) and a separate solution of FAM-labeled cAMP PDE from Molecular Devices (product # R7506), at a final concentration of 50 nM are made in the assay buffer (10 mM Tris HCl, pH 7.2, 10 mM MgCl2, 0.05% NaN3 0.01% Tween-20, and 1 mM DTT). The enzyme and the substrate are then added to the assay plates in two consecutive additions of 10 μL, and then shaken to mix. The reaction is allowed to proceed at room temperature for 30 minutes. A binding solution is then made from the kit components, comprised of 80% Solution A, 20% Solution B and binding reagent at a volume of 1600 the total binding solution. […]

human PDE10A2, sequence (Q9Y233 267-1055): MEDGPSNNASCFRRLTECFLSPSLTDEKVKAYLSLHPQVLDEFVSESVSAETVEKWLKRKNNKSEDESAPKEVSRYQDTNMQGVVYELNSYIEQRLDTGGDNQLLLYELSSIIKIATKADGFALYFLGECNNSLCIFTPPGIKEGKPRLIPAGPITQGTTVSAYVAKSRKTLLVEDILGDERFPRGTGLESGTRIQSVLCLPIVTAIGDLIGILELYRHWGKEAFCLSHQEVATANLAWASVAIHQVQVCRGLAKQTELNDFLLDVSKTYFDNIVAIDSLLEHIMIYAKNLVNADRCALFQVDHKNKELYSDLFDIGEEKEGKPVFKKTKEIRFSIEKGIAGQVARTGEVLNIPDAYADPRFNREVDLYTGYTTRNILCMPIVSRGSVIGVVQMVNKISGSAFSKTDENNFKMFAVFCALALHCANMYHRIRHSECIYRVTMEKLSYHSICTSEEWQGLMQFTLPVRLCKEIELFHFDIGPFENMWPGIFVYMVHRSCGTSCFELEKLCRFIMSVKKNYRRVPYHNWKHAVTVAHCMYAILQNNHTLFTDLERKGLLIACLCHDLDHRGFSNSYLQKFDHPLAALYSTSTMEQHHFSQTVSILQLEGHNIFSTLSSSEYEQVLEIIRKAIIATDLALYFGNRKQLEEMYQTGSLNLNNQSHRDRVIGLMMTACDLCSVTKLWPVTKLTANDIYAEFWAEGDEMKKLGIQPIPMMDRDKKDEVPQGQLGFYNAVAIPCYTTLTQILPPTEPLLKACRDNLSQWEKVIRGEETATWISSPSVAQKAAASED

Cc1nc([C@H]2C[C@@H]2c2nc3ccccc3n2C)cc(-n2nc(C)nc2C2CCCCC2)n1 (stereo in doubt) [Cpd 79, 2-{2-[6-(5-cyclohexyl-3-methyl-1H-1,2,4-triazol-1-yl)-2-methylpyrimidin-4-yl]cyclopropyl}-1-methyl-1H-benzimidazole]
Ki: 2.5 nM

Cc1nc(C2CC2c2nc3ccccc3n2C)cc(-n2nc(C)nc2C)n1 (stereo not shown) [Cpd 36, 2-(2-(6-(3,5-dimethyl-1H-1,2,4-triazol-1-yl)-2-methylpyrimidin-4-yl)cyclopropyl)-1-methyl-1H-benzo[d]imidazole]
Ki: 3.5 nM

COc1ccc(Cc2nc(C)nn2-c2cc(CCc3ccc(C)cn3)nc(C)n2)cc1OC [Cpd 5, 4-(5-(3,4-dimethoxybenzyl)-3-methyl-1H-1,2,4-triazol-1-yl)-2-methyl-6-(2-(5-methylpyridin-2-yl)ethyl)pyrimidine]
Ki: 0.14 nM

Cc1nc(C)n(-c2cc([C@@H]3C[C@H]3c3nc4ccccc4n3C)nc(N3CC[C@@H](F)C3)n2)n1 [Cpd 134, 2-((1R,2R)-2-(6-(3,5-dimethyl-1H-1,2,4-triazol-1-yl)-2-((R)-3-fluoropyrrolidin-1-yl)pyrimidin-4-yl)cyclopropyl)-1-methyl-1H-benzo[d]imidazole]
Ki: 0.58 nM

COc1ccc(Cc2nc(C)nn2-c2cc([C@H]3C[C@H]3c3ccc4ncccc4n3)nc(C)n2)cc1OC (relative stereo) [Cpd 34, Cis-2-(2-(6-(5-(3,4-dimethoxybenzyl)-3-methyl-1H-1,2,4-triazol-1-yl)-2-methylpyrimidin-4-yl)cyclopropyl)-1,5-naphthyridine]
Ki: 0.068 nM

Cc1nc([C@H]2C[C@@H]2c2nc3ccccc3n2C)cc(-n2nc(C)nc2-c2cccnc2)n1 (stereo in doubt) [Cpd 81, 1-methyl-2-{2-[2-methyl-6-(3-methyl-5-pyridin-3-yl-1H-1,2,4-triazol-1-yl)pyrimidin-4-yl]cyclopropyl}-1H-benzimidazole]
Ki: 12.8 nM

Cc1nc(C)n(-c2cc([C@H]3C[C@@H]3c3nc4ccccc4n3C)nc(C3CC3)n2)n1 (relative stereo) [Cpd 112, trans-2-{2-[2-cyclopropyl-6-(3,5-dimethyl-1H-1,2,4-triazol-1-yl)pyrimidin-4-yl]cyclopropyl}-1-methyl-1H-benzimidazole]
Ki: 0.68 nM

CCc1nc(CC)n(-c2cc([C@@H]3C[C@H]3c3nc4ccccc4n3C)nc(C)n2)n1 [Cpd 106, 2-{(1R,2R)-2-[6-(3,5-diethyl-1H-1,2,4-triazol-1-yl)-2-methylpyrimidin-4-yl]cyclopropyl}-1-methyl-1H-benzimidazole]
Ki: 2.8 nM

Cc1nc(C)n(-c2cc([C@@H]3C[C@H]3c3nc4ccccc4n3C)nc(N3CCC[C@H]3C)n2)n1 [Cpd 133, 2-((1R,2R)-2-(6-(3,5-dimethyl-1H-1,2,4-triazol-1-yl)-2-((R)-2-methylpyrrolidin-1-yl)pyrimidin-4-yl)cyclopropyl)-1-methyl-1H-benzo[d]imidazole]
Ki: 0.37 nM

Cc1nc(C)n(-c2cc([C@@H]3C[C@H]3c3nc4ccccc4n3C)nc(OCCO)n2)n1 [Cpd 64, 2-({4-(3,5-dimethyl-1H-1,2,4-triazol-1-yl)-6-[(1R,2R)-2-(1-methyl-1H-benzimidazol-2-yl)cyclopropyl]pyrimidin-2-yl}oxy)ethanol]
Ki: 1.09 nM

Cc1nc([C@H]2C[C@@H]2c2nc3ccccc3n2C)cc(-n2nc(C)nc2-c2ccccn2)n1 (stereo in doubt) [Cpd 82, 1-methyl-2-{2-[2-methyl-6-(3-methyl-5-pyridin-2-yl-1H-1,2,4-triazol-1-yl)pyrimidin-4-yl]cyclopropyl}-1H-benzimidazole]
Ki: > 75 nM

COc1ccc(Cc2nc(C)nn2-c2cc(/C=C/c3ccccn3)nc(C)n2)cc1OC [Cpd 19, (E)-4-(5-(3,4-dimethoxybenzyl)-3-methyl-1H-1,2,4-triazol-1-yl)-2-methyl-6-(2-(pyridin-2-yl)vinyl)pyrimidine]
Ki: 0.002 nM

COc1ccc(Cc2nc(C)nn2-c2cc(C#Cc3ccc4ccccc4n3)nc(C)n2)nc1OC [Cpd 7, 2-((6-(5-((5,6-dimethoxypyridin-2-yl)methyl)-3-methyl-1H-1,2,4-triazol-1-yl)-2-methylpyrimidin-4-yl)ethynyl)quinoline]
Ki: 0.073 nM

Cc1nc(C)n(-c2cc([C@H]3C[C@@H]3c3nc4ccccc4n3C)nc(OCC(F)(F)F)n2)n1 (relative stereo) [Cpd 124, trans-2-{2-[6-(3,5-dimethyl-1H-1,2,4-triazol-1-yl)-2-(2,2,2-trifluoroethoxy)pyrimidin-4-yl]cyclopropyl}-1-methyl-1H-benzimidazole]
Ki: 1.5 nM

Cc1nc([C@@H]2C[C@H]2c2nc3ccccc3n2Cc2ccccn2)cc(-n2nc(C)nc2C)n1 (stereo in doubt) [Cpd 73, 2-{2-[6-(3,5-dimethyl-1H-1,2,4-triazol-1-yl)-2-methylpyrimidin-4-yl]cyclopropyl}-1-(pyridin-2-ylmethyl)-1H-benzimidazole]
Ki: 13.1 nM

COc1ncc(Cc2nc(C)nn2-c2cc(CCc3ccc4ccccc4n3)nc(C)n2)nc1OC [Cpd 15, 2-(2-(6-(5-((5,6-dimethoxypyrazin-2-yl)methyl)-3-methyl-1H-1,2,4-triazol-1-yl)-2-methylpyrimidin-4-yl)ethyl)quinoline]
Ki: 0.056 nM

Cc1nc(C)n(-c2cc([C@H]3C[C@@H]3c3nc4ccccc4n3C)nc(NC(C)(C)C)n2)n1 (relative stereo) [Cpd 118, trans-N-tert-butyl-4-(3,5-dimethyl-1H-1,2,4-triazol-1-yl)-6-[2-(1-methyl-1H-benzimidazol-2-yl)cyclopropyl]pyrimidin-2-amine]
Ki: 1.7 nM

Cc1nc(C)n(-c2cc([C@H]3C[C@@H]3c3nc4ccccc4n3C)nc(N3CCNCC3)n2)n1 (relative stereo) [Cpd 126, trans-2-{2-[6-(3,5-dimethyl-1H-1,2,4-triazol-1-yl)-2-piperazin-1-ylpyrimidin-4-yl]cyclopropyl}-1-methyl-1H-benzimidazole]
Ki: 2 nM

Cc1nc([C@@H]2C[C@H]2c2nc3ccccc3n2C)cc(-n2nc(C)nc2[C@@H]2CCCO2)n1 [Cpd 101, 1-methyl-2-[(1R,2R)-2-(2-methyl-6-{3-methyl-5-[(2S)-tetrahydrofuran-2-yl]-1H-1,2,4-triazol-1-yl}pyrimidin-4-yl)cyclopropyl]-1H-benzimidazole]
Ki: 5.8 nM

Cc1nc([C@H]2C[C@@H]2c2nnc(-c3ccn(C)n3)s2)cc(-n2nc(C)nc2C)n1 [Cpd 105, 4-(3,5-dimethyl-1H-1,2,4-triazol-1-yl)-2-methyl-6-{(1S,2S)-2-[5-(1-methyl-1H-pyrazol-3-yl)-1,3,4-thiadiazol-2-yl]cyclopropyl}pyrimidine]
Ki: > 75 nM

Cc1nc([C@H]2C[C@@H]2c2nc3ccccc3s2)cc(-n2nc(C)nc2C)n1 (relative stereo) [Cpd 129, trans-2-{2-[6-(3,5-dimethyl-1H-1,2,4-triazol-1-yl)-2-methylpyrimidin-4-yl]cyclopropyl}-1,3-benzothiazole]
Ki: 43 nM

Cc1nc([C@H]2C[C@@H]2c2nc3ccccc3n2C)cc(-n2nc(C)nc2O)n1 (stereo in doubt) [Cpd 78, 3-methyl-1-{2-methyl-6-[2-(1-methyl-1H-benzimidazol-2-yl)cyclopropyl]pyrimidin-4-yl}-1H-1,2,4-triazol-5-ol]
Ki: > 75 nM
